Measured values reported in patent US20260109707A1, “HETEROBIFUNCTIONAL COMPOUNDS AND METHODS OF TREATING DISEASE” (Halda Therapeutics OpCo. Inc., priority 2022, published 2026).
Read-outs that look alike come from different tables or passages of the source.

Assays:
[1] = test system: T-Rex 293 cell line SC3 cells having increased expression of androgen receptor protein due to exposure to doxycycline; assay: Cellular growth inhibition assay, T-Rex 293 SC3 cells with doxycycline (CellTiter-Glo, 72 hours); assay type: cell-based; conditions: T-Rex 293 SC3 cells with increased androgen receptor expression due to doxycycline (10 ng/mL)
Summary of the method: (§1)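 Growth inhibition is measured in an inducible AR-expressing T-Rex 293 clone, SC3, cultured with or without 10 ng/mL doxycycline in hormone-depleted medium. Test compounds are applied for 72 hours. GI50 values derive from CellTiter-Glo 2.0 signal fitted by four-parameter regression.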

[2] = test system: T-Rex 293 cell line SC3 cells lacking increased expression of androgen receptor protein; assay: Cellular growth inhibition assay, T-Rex 293 SC3 cells without doxycycline (CellTiter-Glo, 72 hours); assay type: cell-based; conditions: T-Rex 293 cell line SC3 cells not exposed to doxycycline (lacking increased androgen receptor expression)
Summary of the method: as §1

VCaP cells = assay: Cellular growth inhibition assay for VCaP cells (CellTiter-Glo, 72 hours); assay type: cell-based, human
Summary of the method: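 Luminescent viability signal after 72 h of compound exposure gave GI50 values by four-parameter nonlinear regression. Compounds were added in 0.5% DMSO to cells plated 24 h earlier at 5000/well in DMEM containing 10% FBS.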

Compound	GI50 [1]	GI50 [2]	GI50 (VCaP cells)	GI50 ([1]; 72 h)	GI50 ([2]; 72 h)	GI50 (VCaP cells; Homo sapiens, VCaP, 72 h)
Cc1sc2c(c1C)C(c1ccc(OC3CCC4(CCN(c5ccc(C(=O)N[C@H]6CC[C@H](Oc7ccc(C#N)c(Cl)c7)CC6)nn5)C4)C3)cc1)=N[C@@H](C)c1nnc(C)n1-2 (stereo partly drawn) [I-702]	< 500 nM	500 to 1500 nM	< 500 nM	–	–	–
Cc1sc2c(c1C)C(c1ccc(N3C[C@H]4CN(c5ccc(C(=O)N[C@H]6CC[C@H](Oc7ccc(C#N)c(Cl)c7)CC6)nn5)C[C@H]4C3)c(F)c1)=N[C@@H](C)c1nnc(C)n1-2 [I-703]	–	–	–	< 500 nM	< 500 nM	500 to 1500 nM
Cc1sc2c(c1C)C(c1ccc(N3C[C@@]4(C)CN(c5ccc(C(=O)N[C@H]6CC[C@H](Oc7ccc(C#N)c(Cl)c7)CC6)nn5)C[C@@]4(C)C3)cc1)=N[C@@H](C)c1nnc(C)n1-2 [I-704]	–	–	–	< 500 nM	> 3000 nM	500 to 1500 nM
Cc1sc2c(c1C)C(c1ccc(N3C[C@@H]4CN(c5ccc(C(=O)N[C@H]6CC[C@H](Oc7ccc(C#N)c(Cl)c7)CC6)nn5)C[C@H]4C3)cc1)=N[C@@H](C)c1nnc(C)n1-2 [I-706]	< 500 nM	< 500 nM	< 500 nM	–	–	–
Cc1sc2c(c1C)C(c1cccc(N3CCC4(CCN(c5ccc(C(=O)N[C@H]6CC[C@H](Oc7ccc(C#N)c(Cl)c7)CC6)nn5)C4)C3)c1)=N[C@@H](C)c1nnc(C)n1-2 (stereo partly drawn) [I-708]	< 500 nM	1500 to 3000 nM	< 500 nM	–	–	–
Cc1sc2c(c1C)C(c1cccc(OC3CCC4(CC3)CCN(c3ccc(C(=O)N[C@H]5CC[C@H](Oc6ccc(C#N)c(Cl)c6)CC5)nn3)C4)c1)=N[C@@H](C)c1nnc(C)n1-2 (stereo partly drawn) [I-709]	< 500 nM	> 3000 nM	–	–	–	< 500 nM
Cc1sc2c(c1C)C(c1cccc(N3CC4(CCCN(c5ccc(C(=O)N[C@H]6CC[C@H](Oc7ccc(C#N)c(Cl)c7)CC6)nn5)C4)C3)c1)=N[C@@H](C)c1nnc(C)n1-2 [I-710]	–	–	–	< 500 nM	> 3000 nM	> 3000 nM
Cc1sc2c(c1C)C(c1cccc(CC3CC4(CCCN(c5ccc(C(=O)N[C@H]6CC[C@H](Oc7ccc(C#N)c(Cl)c7)CC6)nn5)C4)C3)c1)=N[C@@H](C)c1nnc(C)n1-2 (stereo partly drawn) [I-711]	–	–	–	< 500 nM	> 3000 nM	< 500 nM
Cc1sc2c(c1C)C(c1cccc(CC3CC4(CCCN(c5ccc(C(=O)N[C@H]6CC[C@H](Oc7ccc(C#N)c(Cl)c7)CC6)nn5)C4)C3)c1)=N[C@@H](C)c1nnc(C)n1-2 (stereo partly drawn) [I-712]	< 500 nM	> 3000 nM	< 500 nM	–	–	–
Cc1sc2c(c1C)C(c1cccc(CC3CCC4(CC3)CCN(c3ccc(C(=O)N[C@H]5CC[C@H](Oc6ccc(C#N)c(Cl)c6)CC5)nn3)C4)c1)=N[C@@H](C)c1nnc(C)n1-2 (stereo partly drawn) [I-713]	> 3000 nM	> 3000 nM	–	–	–	< 500 nM
Cc1sc2c(c1C)C(c1cccc(CC3CCC4(CC3)CCN(c3ccc(C(=O)N[C@H]5CC[C@H](Oc6ccc(C#N)c(Cl)c6)CC5)nn3)C4)c1)=N[C@@H](C)c1nnc(C)n1-2 (stereo partly drawn) [I-714]	< 500 nM	< 500 nM	< 500 nM	–	–	–
Cc1sc2c(c1C)C(c1cccc(OC3CC4(CCCN(c5ccc(C(=O)N[C@H]6CC[C@H](Oc7ccc(C#N)c(Cl)c7)CC6)nn5)C4)C3)c1)=N[C@@H](C)c1nnc(C)n1-2 (stereo partly drawn) [I-715]	< 500 nM	500 to 1500 nM	< 500 nM	–	–	–
Cc1sc2c(c1C)C(c1ccccc1OC1CC3(CCCN(c4ccc(C(=O)N[C@H]5CC[C@H](Oc6ccc(C#N)c(Cl)c6)CC5)nn4)C3)C1)=N[C@@H](C)c1nnc(C)n1-2 (stereo partly drawn) [I-716]	–	–	–	> 3000 nM	> 3000 nM	> 3000 nM
Cc1sc2c(c1C)C(c1ccccc1OC1CC3(CCCN(c4ccc(C(=O)N[C@H]5CC[C@H](Oc6ccc(C#N)c(Cl)c6)CC5)nn4)C3)C1)=N[C@@H](C)c1nnc(C)n1-2 (stereo partly drawn) [I-717]	> 3000 nM	> 3000 nM	> 3000 nM	–	–	–
Cc1sc2c(c1C)C(c1ccc(C3CCC4(CC3)CCN(c3ccc(C(=O)N[C@H]5CC[C@H](Oc6ccc(C#N)c(Cl)c6)CC5)nn3)C4)cn1)=NC1(CC1)c1nnc(C)n1-2 (stereo partly drawn) [I-718]	1500 to 3000 nM	> 3000 nM	< 500 nM	–	–	–
Cc1sc2c(c1C)C(c1ccc(N3CCC4(CCCN(c5ccc(C(=O)N[C@H]6CC[C@H](Oc7ccc(C#N)c(Cl)c7)CC6)nn5)C4)CC3)cc1)=NC(C(F)(F)F)c1nnc(C)n1-2 (stereo partly drawn) [I-721]	< 500 nM	–	< 500 nM	–	> 3000 nM	–

Compound	GI50 [1]	GI50 [2]	GI50 (VCaP cells)	GI50 ([1]; 72 h)	GI50 ([2]; 72 h)	GI50 (VCaP cells; Homo sapiens, VCaP, 72 h)
Cc1sc2c(c1C)C(c1ccc(N3CCC4(CCCN(c5ccc(C(=O)N[C@H]6CC[C@H](Oc7ccc(C#N)c(Cl)c7)CC6)nn5)C4)CC3)cc1)=NC(C(F)(F)F)c1nnc(C)n1-2 (stereo partly drawn) [I-722]	> 3000 nM	> 3000 nM	> 3000 nM	–	–	–
Cc1sc2c(c1C)C(c1ccc(C#CC3CC4(C3)CN(c3ccc(C(=O)N[C@H]5CC[C@H](Oc6ccc(C#N)c(Cl)c6)CC5)nn3)C4)cc1)=NC(C(F)(F)F)c1nnc(C)n1-2 (stereo partly drawn) [I-723]	> 3000 nM	> 3000 nM	–	–	–	< 500 nM
Cc1sc2c(c1C)C(c1ccc(N3CC4(CC(Cc5ccc(C(=O)N[C@H]6CC[C@H](Oc7ccc(C#N)c(Cl)c7)CC6)nn5)C4)C3)cc1)=NC(C(F)(F)F)c1nnc(C)n1-2 (stereo partly drawn) [I-724]	> 3000 nM	–	–	–	> 3000 nM	< 500 nM
Cc1sc2c(c1C)C(c1ccc(N3CC4(CC(Cc5ccc(C(=O)N[C@H]6CC[C@H](Oc7ccc(C#N)c(Cl)c7)CC6)nn5)C4)C3)cc1)=NC(C(F)(F)F)c1nnc(C)n1-2 (stereo partly drawn) [I-725]	< 500 nM	> 3000 nM	< 500 nM	–	–	–
Cc1sc2c(c1C)C(c1ccc(N3CCC4(CCN(c5ccc(C(=O)N[C@H]6CC[C@H](Oc7ccc(C#N)c(Cl)c7)CC6)nn5)CC4)C3)cc1)=NC(C(F)(F)F)c1nnc(C)n1-2 (stereo partly drawn) [I-726]	< 500 nM	–	–	–	> 3000 nM	< 500 nM
Cc1sc2c(c1C)C(c1ccc(N3CCC4(CCN(c5ccc(C(=O)N[C@H]6CC[C@H](Oc7ccc(C#N)c(Cl)c7)CC6)nn5)CC4)C3)cc1)=NC(C(F)(F)F)c1nnc(C)n1-2 (stereo partly drawn) [I-727]	> 3000 nM	> 3000 nM	< 500 nM	–	–	–
Cc1sc2c(c1C)C(c1ccc(CC3CC4(CCN(c5ccc(C(=O)N[C@H]6CC[C@H](Oc7ccc(C#N)c(Cl)c7)CC6)nn5)CC4)C3)cc1)=NC(C(F)(F)F)c1nnc(C)n1-2 (stereo partly drawn) [I-728]	> 3000 nM	–	> 3000 nM	–	> 3000 nM	–
Cc1sc2c(c1C)C(c1ccc(CC3CC4(CCN(c5ccc(C(=O)N[C@H]6CC[C@H](Oc7ccc(C#N)c(Cl)c7)CC6)nn5)CC4)C3)cc1)=NC(C(F)(F)F)c1nnc(C)n1-2 (stereo partly drawn) [I-729]	< 500 nM	> 3000 nM	< 500 nM	–	–	–
Cc1sc2c(c1C)C(c1ccc(N3C4CCCC3CC3(CCN(c5ccc(C(=O)N[C@H]6CC[C@H](Oc7ccc(C#N)c(Cl)c7)CC6)nn5)C3)C4)cc1)=N[C@@H](C)c1nnc(C)n1-2 (stereo partly drawn) [I-730]	< 500 nM	> 3000 nM	–	–	–	< 500 nM
Cc1sc2c(c1C)C(c1ccc(N3CCC4(CCN(c5ccc(C(=O)N[C@H]6CC[C@H](Oc7ccc(C#N)c(Cl)c7)CC6)nn5)C4)C3)c(F)c1)=N[C@@H](C)c1nnc(C)n1-2 (stereo partly drawn) [I-731]	–	–	500 to 1500 nM	< 500 nM	< 500 nM	–
Cc1sc2c(c1C)C(c1ccc(N3CCC4(CCN(c5ccc(C(=O)N[C@H]6CC[C@H](Oc7ccc(C#N)c(Cl)c7)CC6)nn5)C4)C3)cc1F)=N[C@@H](C)c1nnc(C)n1-2 (stereo partly drawn) [I-732]	–	–	< 500 nM	< 500 nM	< 500 nM	–
Cc1sc2c(c1C)C(c1ccc(OC3CCC4(CCN(c5ccc(C(=O)N[C@H]6CC[C@H](Oc7ccc(C#N)c(Cl)c7)CC6)nn5)C4)C3)cc1)=N[C@@H](C)c1nnc(C)n1-2 (stereo partly drawn) [I-733]	–	–	< 500 nM	< 500 nM	< 500 nM	–
Cc1sc2c(c1C)C(c1ccc(OC3CCC4(CCN(c5ccc(C(=O)N[C@H]6CC[C@H](Oc7ccc(C#N)c(Cl)c7)CC6)nn5)C4)C3)cc1)=N[C@@H](C)c1nnc(C)n1-2 (stereo partly drawn) [I-734]	< 500 nM	< 500 nM	< 500 nM	–	–	–
Cc1sc2c(c1C)C(c1ccc(N3CCC4(CCN(c5ccc(C(=O)N[C@H]6CC[C@H](Oc7ccc(C#N)c(Cl)c7)CC6)nn5)C4)CC3)c(F)c1)=N[C@@H](C)c1nnc(C)n1-2 [I-735]	< 500 nM	< 500 nM	< 500 nM	–	–	–
Cc1sc2c(c1C)C(c1ccccc1N1CCC3(CCCN(c4ccc(C(=O)N[C@H]5CC[C@H](Oc6ccc(C#N)c(Cl)c6)CC5)nn4)C3)CC1)=N[C@@H](C)c1nnc(C)n1-2 [I-737]	–	–	–	< 500 nM	< 500 nM	500 to 1500 nM
